{"source": "patent US20080241257A1", "about": "“Biodegradable Nanoparticles Incorporating Highly Hydrophilic Positively Charged Drugs” (THE BOARD OF TRUSTEES OF THE UNIVERSITY OF ILLINOIS, priority 2003, published 2008)", "tested_on": "M. tuberculosis Erdman", "assay": "M. tuberculosis chronic infection mouse model, CFU in the lungs", "format": "in vivo, BALB/c mice", "data": [{"smiles": "[H]/N=C(/N)N[C@H]1[C@H](O)[C@@H](O)[C@H](O[C@@H]2O[C@@H](C)[C@](O)(C=O)[C@H]2O[C@@H]2O[C@@H](CO)[C@H](O)[C@@H](O)[C@@H]2NC)[C@@H](N/C(N)=N\\[H])[C@@H]1O", "note": "[SM, streptomycin]", "values": [{"measurement": "log CFU in the lungs", "setting": "100 mg/kg injected subcutaneously (solution in water) daily for 3 weeks, control 6.88", "value": 6.13, "unit": "log CFU"}, {"measurement": "reduction in growth of the TB bacilli compared to the control group", "setting": "injected subcutaneously, 100 mg/kg daily 3 weeks, p<0.01", "value": "one"}]}]}
